The term IC50 denotes the concentration that gives 50% inhibition.

The results in this text go back to US10894784B2, “Heteroarylbenzimidazole compounds” (BAYER PHARMA AKTIENGESELLSCHAFT, priority 2015, dated 2021).

SMILES strings stand for the structures.

Chain of TBK1 (Q9UHD2 whole entry): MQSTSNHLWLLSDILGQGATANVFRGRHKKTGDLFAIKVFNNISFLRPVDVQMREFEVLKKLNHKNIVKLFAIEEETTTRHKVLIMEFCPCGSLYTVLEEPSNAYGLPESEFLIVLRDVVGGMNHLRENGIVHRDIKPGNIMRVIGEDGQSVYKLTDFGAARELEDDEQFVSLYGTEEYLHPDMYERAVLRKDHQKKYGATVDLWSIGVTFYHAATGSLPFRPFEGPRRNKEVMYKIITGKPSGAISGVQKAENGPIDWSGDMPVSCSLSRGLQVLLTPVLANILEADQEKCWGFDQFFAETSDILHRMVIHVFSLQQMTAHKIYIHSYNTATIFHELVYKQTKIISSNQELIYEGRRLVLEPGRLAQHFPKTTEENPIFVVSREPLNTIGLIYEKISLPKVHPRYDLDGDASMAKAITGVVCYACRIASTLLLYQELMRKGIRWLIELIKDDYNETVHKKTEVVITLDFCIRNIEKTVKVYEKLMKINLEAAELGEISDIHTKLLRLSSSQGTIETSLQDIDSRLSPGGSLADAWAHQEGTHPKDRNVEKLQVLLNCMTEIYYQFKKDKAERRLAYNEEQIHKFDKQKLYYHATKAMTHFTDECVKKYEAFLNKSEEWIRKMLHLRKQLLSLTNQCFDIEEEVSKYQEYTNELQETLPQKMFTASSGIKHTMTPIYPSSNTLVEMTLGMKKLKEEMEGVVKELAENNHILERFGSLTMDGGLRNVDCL

The first assay addresses TBK1 (Homo sapiens (Human), UniProt Q9UHD2). Put plainly: TBK1 low ATP kinase assay (in vitro assay 1). The class given is biochemical. Particulars: TBK1 low ATP kinase assay IC50, in vitro assay 1.
On to `Cc1noc(-c2ccc3nc(Nc4cc(C(C)N5CCN(C(=O)CC(F)(F)F)CC5)ccn4)[nH]c3c2)n1` (single isomer, unassigned) [Example 16.06.02.A, 3,3,3-trifluoro-1-{4-[(1R or 1S)-1-(2-{[6-(3-methyl-1,2,4-oxadiazol-5-yl)-1H-benzimidazol-2-yl]amino}pyridin-4-yl)ethyl]piperazin-1-yl}propan-1-one], for which the IC50 was 105 nM.

Still in this assay, the particulars now being: in vitro assay 1, read-out: TBK1 low ATP kinase assay IC50.
Take `O=C(C1CC1)N1CCN(Cc2ccnc(Nc3nc4ccc(-c5ccnc(F)c5)cc4[nH]3)c2)CC1` [Example 137.03, cyclopropyl{4-[(2-{[6-(2-fluoropyridin-4-yl)-1H-benzimidazol-2-yl]amino}pyridin-4-yl)methyl]piperazin-1-yl}methanone]: the IC50 came to 20 nM.
`COc1cncnc1-c1ccc2nc(Nc3cc(CN4CCN(C(=O)N5CCCC5)CC4)ccn3)[nH]c2c1` [Example 35.01.05, {4-[(2-{[6-(5-methoxypyrimidin-4-yl)-1H-benzimidazol-2-yl]amino}pyridin-4-yl)methyl]piperazin-1-yl}(pyrrolidin-1-yl)methanone]: the IC50 stood at 48 nM.
With `Cn1cc(-c2ccc3nc(Nc4cc(CN5CCN(C(=O)CC6CC6)CC5)ccn4)[nH]c3c2)cn1` [Example 37.02, 2-cyclopropyl-1-{4-[(2-{[6-(1-methyl-1H-pyrazol-4-yl)-1H-benzimidazol-2-yl]amino}pyridin-4-yl)methyl]piperazin-1-yl}ethanone], the IC50 worked out at 62.5 nM.
The same measure, in the same setting: in the case of `CC(c1ccnc(Nc2nc3ccc(-c4cnn(CC5CC5(C)C)c4)cc3[nH]2)c1)N1CCN(C(=O)C2CC2)CC1` (single isomer, unassigned) [Example 67.03, cyclopropyl{4-[(1R or 1S)-1-(2-{[6-(1-{[(1RS)-2,2-dimethylcyclopropyl]methyl}-1H-pyrazol-4-yl)-1H-benzimidazol-2-yl]amino}pyridin-4-yl)ethyl]piperazin-1-yl}methanone] it was 2 nM; in that of `COc1c(NCC2CC2)ncnc1-c1ccc2nc(Nc3cc(C(C)N4CCN(C(=O)OC(C)(C)C)CC4)ccn3)[nH]c2c1` (single isomer, unassigned) [Example 109.02.01, tert-butyl 4-[(1R or 1S)-1-{2-[(6-{6-[(cyclopropylmethyl)amino]-5-methoxypyrimidin-4-yl}-1H-benzimidazol-2-yl)amino]pyridin-4-yl}ethyl]piperazine-1-carboxylate], 8 nM; in that of `Cc1nnc(-c2ccc3nc(Nc4cc(CN5CCN(C(=O)C6CC6)CC5)ccn4)[nH]c3c2)o1` [Example 66.01.02, cyclopropyl{4-[(2-{[6-(5-methyl-1,3,4-oxadiazol-2-yl)-1H-benzimidazol-2-yl]amino}pyridin-4-yl)methyl]piperazin-1-yl}methanone], 33 nM.
Turning to `COc1c(C)ncnc1-c1ccc2nc(Nc3cc(C(C)N4CCN(C(=O)C5(C(F)(F)F)CC5)CC4)ccn3)[nH]c2c1` (centres unmarked) [Example 83.05, {4-[(1R or IS)-1-(2-{[6-(5-methoxy-6-methylpyrimidin-4-yl)-1H-benzimidazol-2-yl]amino}pyridin-4-yl)ethyl]piperazin-1-yl}[1-(trifluoromethyl)cyclopropyl]methanone], the IC50 was found to be 2.9 nM.
The same measure, in the same setting: as for `COc1cncnc1-c1ccc2nc(Nc3cc(CN4CCN(C(=O)N5CCCCC5)CC4)ccn3)[nH]c2c1` [Example 35.01.06, {4-[(2-{[6-(5-methoxypyrimidin-4-yl)-1H-benzimidazol-2-yl]amino}pyridin-4-yl)methyl]piperazin-1-yl}(piperidin-1-yl)methanone], the figure is 47.9 nM; as for `CC(O)c1cc(-c2ccc3nc(Nc4cc(CN5CCN(C(=O)CC(F)(F)F)CC5)ccn4)[nH]c3c2)ncn1` (racemic) [Example 97.02, (rac)-3,3,3-trifluoro-1-[4-({2-[(6-{6-[1-hydroxyethyl]pyrimidin-4-yl}-1H-benzimidazol-2-yl)amino]pyridin-4-yl}methyl)piperazin-1-yl]propan-1-one], 18 nM.
For the molecule `CC(C)Nc1cc(-c2ccc3nc(Nc4cc(CN5CCN(C(=O)CC(F)(F)F)CC5)ccn4)[nH]c3c2)ncn1` [Example 154.02, 3,3,3-trifluoro-1-(4-{[2-({6-[6-(propan-2-ylamino)pyrimidin-4-yl]-1H-benzimidazol-2-yl}amino)pyridin-4-yl]methyl}piperazin-1-yl)propan-1-one], the IC50 came to 3.3 nM.
The same measure, in the same setting: in the case of `Cc1noc(-c2ccc3nc(Nc4cc(CN5CCN(C(N)=O)CC5)ccn4)[nH]c3c2)n1` [Example 101.20, 4-[(2-{[6-(3-methyl-1,2,4-oxadiazol-5-yl)-1H-benzimidazol-2-yl]amino}pyridin-4-yl)methyl]piperazine-1-carboxamide] it was 560 nM; in that of `CC(c1ccnc(Nc2nc3ccc(-c4cnn(CC5(C)CC5)c4)cc3[nH]2)c1)N1CCN(C(=O)OC(C)(C)C)CC1` (single isomer, unassigned) [Example 68.01, tert-butyl 4-[(1R or 1S)-1-{2-[(6-{1-[(1-methylcyclopropyl)methyl]-1H-pyrazol-4-yl}-1H-benzimidazol-2-yl)amino]pyridin-4-yl}ethyl]piperazine-1-carboxylate], 26 nM.
The same measure, in the same setting: in the case of `CN(C)c1cc(-c2ccc3nc(Nc4cc(CN5CCN(C(=O)C6CC6)CC5)ccn4)[nH]c3c2)ccn1` [Example 135.03, cyclopropyl(4-{[2-({6-[2-(dimethylamino)pyridin-4-yl]-1H-benzimidazol-2-yl}amino)pyridin-4-yl]methyl}piperazin-1-yl)methanone] it was 30 nM.
In the case of `COc1cncc(-c2ccc3nc(Nc4cc(CN5CCN(C(=O)C6CC6)CC5)ccn4)[nH]c3c2)n1` [Example 48.01, cyclopropyl{4-[(2-{[6-(6-methoxypyrazin-2-yl)-1H-benzimidazol-2-yl]amino}pyridin-4-yl)methyl]piperazin-1-yl}methanone], the half-inhibitory concentration (IC50) was 193 nM.
Still for that read-out and setting: as for `COc1cnc(C)cc1-c1ccc2nc(Nc3cc(CN4CCN(C(=O)CC5CC5)CC4)ccn3)[nH]c2c1` [Example 07.04, 2-cyclopropyl-1-{4-[(2-{[6-(5-methoxy-2-methylpyridin-4-yl)-1H-benzimidazol-2-yl]amino}pyridin-4-yl)methyl]piperazin-1-yl}ethanone], the figure is 444 nM; as for `COc1nnc(Cl)cc1-c1ccc2nc(Nc3cc(CN4CCN(C(=O)C5CC5)CC4)ccn3)[nH]c2c1` [Example 46.02, {4-[(2-{[6-(6-chloro-3-methoxypyridazin-4-yl)-1H-benzimidazol-2-yl]amino}pyridin-4-yl)methyl]piperazin-1-yl}(cyclopropyl)methanone], 72.2 nM.
On to `COCC1CCN(S(=O)(=O)N2CCN(Cc3ccnc(Nc4nc5ccc(-c6ncncc6OC)cc5[nH]4)c3)CC2)CC1` [Example 35.01.16, N-{4-[(4-{[4-(methoxymethyl)piperidin-1-yl]sulfonyl}piperazin-1-yl)methyl]pyridin-2-yl}-6-(5-methoxypyrimidin-4-yl)-1H-benzimidazol-2-amine], for which the half-maximal inhibitory concentration (IC50) is 45.9 nM.
Same read-out and setting: as for `O=C(CC1CC1)N1CCN(Cc2ccnc(Nc3nc4ccc(-c5ccncn5)cc4[nH]3)c2)CC1` [Example 23.01.01, 2-cyclopropyl-1-{4-[(2-{[6-(pyrimidin-4-yl)-1H-benzimidazol-2-yl]amino}pyridin-4-yl)methyl]piperazin-1-yl}ethanone], the figure is 33.4 nM; as for `CC(c1ccnc(Nc2nc3ccc(-c4cnn(CC5CC(F)(F)C5)c4)cc3[nH]2)c1)N1CCN(C(=O)CC(F)(F)F)CC1` (single isomer, unassigned) [Example 169.02, 1-{4-[(1R or 1S)-1-{2-[(6-{1-[(3,3-difluorocyclobutyl)methyl]-1H-pyrazol-4-yl}-1H-benzimidazol-2-yl)amino]pyridin-4-yl}ethyl]piperazin-1-yl}-3,3,3-trifluoropropan-1-one], 11.6 nM; as for `COc1nc(-c2ccc3nc(Nc4cc(CN5CCN(C(=O)CC(F)(F)F)CC5)ccn4)[nH]c3c2)cc(N(C)C)n1` [Example 189.02, 1-(4-{[2-({6-[6-(dimethylamino)-2-methoxypyrimidin-4-yl]-1H-benzimidazol-2-yl}amino)pyridin-4-yl]methyl}piperazin-1-yl)-3,3,3-trifluoropropan-1-one], 28.6 nM.
The same measure, in the same setting: in the case of `CC(C)(C)OC(=O)N1CCN(Cc2ccnc(Nc3nc4ccc(-c5ncnc6c5COC6)cc4[nH]3)c2)CC1` [Example 182.01, tert-butyl 4-[(2-{[6-(5,7-dihydrofuro[3,4-d]pyrimidin-4-yl)-1H-benzimidazol-2-yl]amino}pyridin-4-yl)methyl]piperazine-1-carboxylate] it was 275 nM; in that of `CCOc1nccc(-c2ccc3nc(Nc4cc(C(C)N5CCN(C(=O)CC(F)(F)F)CC5)ccn4)[nH]c3c2)n1` (single isomer, unassigned) [Example 26.03.01.B, 1-{4-[(1S or 1R)-1-(2-{[6-(2-ethoxypyrimidin-4-yl)-1H-benzimidazol-2-yl]amino}pyridin-4-yl)ethyl]piperazin-1-yl}-3,3,3-trifluoropropan-1-one], 19.5 nM.
On the same count and under the same terms, in the case of `CC(c1ccnc(Nc2nc3ccc(-c4cnn(CC5CCC5)c4)cc3[nH]2)c1)N1CCN(C(=O)OC(C)(C)C)CC1` (single isomer, unassigned) [Example 59.01.01, tert-butyl 4-{(1R or 1S)-1-[2-({6-[1-(cyclobutylmethyl)-1H-pyrazol-4-yl]-1H-benzimidazol-2-yl}amino)pyridin-4-yl]ethyl}piperazine-1-carboxylate] it was 14.2 nM; in that of `CC(c1ccnc(Nc2nc3ccc(-c4cnn(C[C@@H]5CC5(Cl)Cl)c4)cc3[nH]2)c1)N1CCN(C(=O)CC(F)(F)F)CC1` (single isomer, unassigned) [Example 170.02, 1-{4-[(1R or 1S)-1-(2-{[6-(1-{[(1RS)-2,2-dichlorocyclopropyl]methyl}-1H-pyrazol-4-yl)-1H-benzimidazol-2-yl]amino}pyridin-4-yl)ethyl]piperazin-1-yl}-3,3,3-trifluoropropan-1-one], 5.21 nM; in that of `COc1cccnc1N1CCN(Cc2ccnc(Nc3nc4ccc(-c5nc(C)no5)cc4[nH]3)c2)CC1` [Example 101.17, N-(4-{[4-(3-methoxypyridin-2-yl)piperazin-1-yl]methyl}pyridin-2-yl)-6-(3-methyl-1,2,4-oxadiazol-5-yl)-1H-benzimidazol-2-amine], 150 nM.
